PubChem BioAssay (NCI)
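Results reflect a 48-hour exposure of cells in 96-well plates to compound at five concentrations. TGI denotes the concentration required for complete inhibition of growth.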

Tests used:
Assay in all cases: NCI tumour cell line growth inhibition, 48 h
DLD-1 colon = tested on: DLD-1 colon
DMS 273 small cell lung = tested on: DMS 273 small cell lung
HCT-116 colon = tested on: HCT-116 colon
HOP-18 NSCLC = tested on: HOP-18 NSCLC
IGROV1 ovarian = tested on: IGROV1 ovarian
LXFL 529 NSCLC = tested on: LXFL 529 NSCLC
M19-MEL melanoma = tested on: M19-MEL melanoma
NCI-H23 lung = tested on: NCI-H23 lung
NCI-H460 lung = tested on: NCI-H460 lung
OVCAR-8 ovarian = tested on: OVCAR-8 ovarian
SK-MEL-2 melanoma = tested on: SK-MEL-2 melanoma
SNB-78 CNS = tested on: SNB-78 CNS
UACC-62 melanoma = tested on: UACC-62 melanoma
DMS 114 small cell lung = tested on: DMS 114 small cell lung
XF 498 CNS = tested on: XF 498 CNS
DU-145 prostate = tested on: DU-145 prostate

| SMILES | TGI (DLD-1 colon) [µM] | TGI (DMS 273 small cell lung) [µM] | TGI (HCT-116 colon) [µM] | TGI (HOP-18 NSCLC) [µM] | TGI (IGROV1 ovarian) [µM] | TGI (LXFL 529 NSCLC) [µM] | TGI (M19-MEL melanoma) [µM] | TGI (NCI-H23 lung) [µM] | TGI (NCI-H460 lung) [µM] | TGI (OVCAR-8 ovarian) [µM] | TGI (SK-MEL-2 melanoma) [µM] | TGI (SNB-78 CNS) [µM] | TGI (UACC-62 melanoma) [µM] | TGI (DMS 114 small cell lung) [µM] | TGI (XF 498 CNS) [µM] | TGI (DU-145 prostate) [µM] |
| --- | --- | --- | --- | --- | --- | --- | --- | --- | --- | --- | --- | --- | --- | --- | --- | --- |
| CCOC(=O)CC1=N/C(=N/C(=N)N[N+](=O)[O-])SC1 | > 100 | > 100 | > 100 | > 100 | > 100 | > 100 | > 100 | > 100 | > 100 | > 100 | > 100 | > 100 | > 100 | – | – | – |
| Nc1ccccc1N | > 100 | > 100 | > 100 | > 100 | > 100 | > 100 | > 100 | > 100 | > 100 | > 100 | > 100 | – | > 100 | – | – | – |
| CC(=O)OCC1OC(N2C(=O)[C@@H](Oc3ccccc3)[C@H]2/C=C/c2ccccc2)C(OC(C)=O)C(OC(C)=O)C1OC(C)=O (stereo partly specified) | > 100 | > 100 | > 100 | – | > 100 | > 100 | > 100 | > 100 | > 100 | > 100 | > 100 | > 100 | > 100 | > 100 | > 100 | – |
| O=C(O)CN1CCSc2ccccc2CN(CC(=O)O)CCSc2ccccc2C1 | > 100 | > 100 | > 100 | > 100 | > 100 | > 100 | > 100 | > 100 | > 100 | > 100 | > 100 | > 100 | > 100 | – | – | – |
| CC(NCc1c(O)ccc2c(-c3ccccc3)cc(=O)oc12)C(=O)O (stereo unspecified) | – | – | > 100 | – | > 100 | – | – | > 100 | > 100 | > 100 | > 100 | – | > 100 | – | – | > 100 |
| C=CCOC(=O)Cn1cnc2c(N)ncnc21 | – | – | > 100 | – | > 100 | – | – | > 100 | > 100 | > 100 | > 100 | – | > 100 | – | – | > 100 |
| C=C=C[P+](c1ccccc1)(c1ccccc1)c1ccccc1 | > 100 | 54.8 | 15.5 | > 100 | > 100 | 20.8 | 91.9 | – | 45.7 | > 100 | 26.5 | 86 | – | 29.9 | – | – |
| O=C1c2cc(Br)ccc2-c2ccc3c4ccc5c6c(ccc(c7ccc1c2c73)c64)C(=O)c1cc(Br)ccc1-5 | – | – | > 100 | – | > 100 | – | – | > 100 | > 100 | > 100 | > 100 | – | > 100 | – | – | > 100 |
| O=C(CNc1ccccc1[N+](=O)[O-])Nn1cnc2ccc(S(=O)(=O)Nc3ccccc3[N+](=O)[O-])cc2c1=O | – | – | > 100 | – | > 100 | – | – | > 100 | > 100 | > 100 | > 100 | – | > 100 | – | – | > 100 |
| Cc1cccc(Nc2nc3ccccc3nc2NS(=O)(=O)c2ccc(N)cc2)c1 | – | – | > 100 | – | > 100 | – | – | 53.3 | > 100 | > 100 | 81.5 | – | > 100 | – | – | > 100 |
| O=C1c2ccccc2C(=O)N1/N=C1/SC(=Nc2ccccc2)C(=Nc2ccccc2)N1c1ccccc1 | – | – | > 100 | – | > 100 | – | – | > 88.6 | > 100 | > 75.9 | > 100 | – | > 100 | – | – | > 100 |
| C#CCN(Cc1ccc2nc(-c3ccccc3)c(Cl)nc2c1)c1ccc(F)cc1 | – | – | > 100 | – | > 100 | – | – | > 100 | > 100 | > 100 | > 100 | – | > 100 | – | – | > 100 |
| COc1ccc2c(c1)/C(=C/c1c(O)[nH]c(=S)[nH]c1=O)C=N2 | – | – | > 100 | – | > 100 | – | – | > 100 | > 100 | > 100 | > 100 | – | > 100 | – | – | > 100 |
| CC(C)(C)N(Cc1ccccc1)C(=O)/C=C\S(=O)c1ccccc1 (stereo unspecified) | – | – | 7.05 | – | 17.8 | – | – | 7.74 | 16 | 4.16 | 8.79 | – | 15.2 | – | – | 13.6 |
| CC[C@@H]1/C=C/C=C/C[C@H](C)[C@@H](O)[C@@H](C)C(=O)[C@H](C)[C@@H](O)[C@H](C)C(=O)[C@H](C)[C@@H](O)[C@H](C)/C=C/C(=O)O[C@H]2[C@@H](C)[C@@H](CC1)O[C@@]1(CC[C@@H](C)[C@@H](CC(C)O)O1)[C@@H]2C (stereo partly specified) | – | – | > 25 | – | 24.9 | – | – | > 25 | > 22.2 | > 25 | 18.1 | – | 14.5 | – | – | > 11.8 |
| COc1cccc(OC)c1C1ON=C(c2ccccc2)N1C12CC3CC(CC(C3)C1)C2 (stereo unspecified) | – | – | > 100 | – | > 100 | – | – | > 100 | > 100 | > 100 | > 100 | – | > 100 | – | – | > 100 |
| O=C1CSCC(=O)Nc2ccccc2N1 | – | – | > 100 | – | > 100 | – | – | > 100 | > 100 | > 100 | > 100 | – | > 100 | – | – | > 100 |
| C=C(Br)C(C)(Cl)CCC(Br)C(C)(C)Br (stereo unspecified) | > 100 | > 100 | > 100 | > 100 | > 100 | > 100 | > 100 | > 100 | > 100 | > 100 | 80.4 | > 100 | > 100 | 76 | – | – |
| COC(=O)c1c(O)c(C#N)c2[nH]c3ccccc3n2c1=O | – | – | > 100 | – | > 100 | – | – | > 100 | > 100 | > 100 | > 100 | – | > 100 | – | – | > 100 |
| Cc1cn([C@@H]2O[C@H](CO[Si](C)(C)C(C)(C)C)[C@]3(O[C@H]3C(=O)NO)[C@H]2O[Si](C)(C)C(C)(C)C)c(=O)[nH]c1=O | – | – | 2.85 | – | 3.19 | – | – | 3.66 | 3.15 | 3.53 | 3.9 | – | 3.38 | – | – | 3.67 |
| CCCc1nnc2sc(COc3ccc(OCc4nn5c(CCC)nnc5s4)c(Cl)c3)nn12 | – | – | > 100 | – | > 100 | – | – | > 100 | 78.1 | > 100 | > 100 | – | 59.4 | – | – | > 100 |
| COc1cccc2c1C(=O)c1c(O)c3c(c(O)c1C2=O)C[C@@](O)(C(=O)CO)CC3OC1CC(N(C)CCOCC(OC(C)=O)OC(C)=O)C(O)C(C)O1 (stereo partly specified) | > 0.01 | – | – | > 0.01 | > 0.01 | > 0.01 | > 0.01 | > 0.01 | > 0.01 | > 0.01 | > 0.01 | – | > 0.01 | > 0.01 | > 0.01 | – |
| O=c1[nH]c(=S)[nH]cc1CN1CCOCC1 | – | – | > 100 | – | > 100 | – | – | > 100 | > 100 | > 100 | > 100 | – | > 100 | – | – | > 100 |
| Clc1ccc(OCC2NC3CCC2CC3)cn1 (stereo unspecified) | – | – | 35.9 | – | > 100 | – | – | > 100 | 55.1 | > 100 | 33.4 | – | 39.3 | – | – | > 100 |
| CCCCNC(=O)OCCN=c1c2ccccc2ccc2ccccc12 | – | – | > 100 | – | > 100 | – | – | > 100 | > 100 | > 100 | > 100 | – | > 100 | – | – | > 100 |
| Fc1ccc(Nc2nc(Cl)c3[nH]cnc3n2)cc1Cl | – | – | > 100 | – | > 100 | – | – | > 100 | > 100 | > 100 | > 100 | – | > 100 | – | – | > 100 |
| CN1CCN(c2cc3[nH]c4cc(O)cc(O)c4c(=O)c3cc2N)CC1 | – | – | > 100 | – | 72.5 | – | – | > 100 | > 100 | > 100 | 70.7 | – | 2.91 | – | – | > 100 |
| CN(C)c1cccc(-c2cc(=S)c3cc4c(cc3[nH]2)OCO4)c1 | – | – | > 100 | – | > 100 | – | – | > 100 | > 100 | > 100 | > 100 | – | > 100 | – | – | > 100 |
| CCN(CC)C(=O)CCn1ccc(=O)[nH]c1=O | – | > 100 | > 100 | – | > 100 | > 100 | > 100 | > 100 | > 100 | > 100 | > 100 | > 100 | > 100 | > 100 | > 100 | – |
